In patent US9708608B2, “Methods for producing a population of pancreatic beta-cells” (priority 2012, dated 2017):

How the values were obtained:
[1] = test system: pancreatic islets of WT mice; test: Quantification of islets and hormone-expressing cells in GABA-treated WT mice (immunohistochemistry, pixel counting); assay type: in vivo, mouse; details: versus aged-matched controls; for Glucagon+ cell count / Somatostatin+ cell count / Insulin+ cell count: pixel counting; for Insulin+ cell count / Islet count / Islet size: mean ± SEM; for Islet count / Islet size: treatment age 2.6 m
Description: (§1) Immunohistochemistry: Tissues were fixed in 4% PFA for 30 min at 4° C., embedded in paraffin and 8 μm sections applied to slides. These sections were assayed as described previously [Collombat et al., 2003]. The primary antibodies used were the following: guinea pig polyclonal anti-insulin (1/500-Linco), anti-glucagon (1/500-Milipore), mouse monoclonal anti-glucagon (1/500-Sigma), anti-BrdU (1/40-Roche), anti-E-cadherin (1/200-BD Transduction Lab), rat anti-somatostatin (1/250-Millipore), rabbit anti-Glut2 (1/5000), anti-PC1/3 (1/500-Milipore), anti-Nkx6.1 (1/3000-Novonordisk), anti-Pdx1 (1/1000), anti-NeuroD1 (1/200-Milipore), anti-Ngn3 (1/500-Abgent), anti-β-galactosidase (1/10000-Milipore), chicken anti vimentin (1/5000-Milipore), goat anti-osteopontin (1/200-R&D Systems). The secondary antibodies (1/1000-Molecular Probes) used were: 594- and 488-alexa anti-mouse; 594- and 488-alexa anti-rabbit; 594- and 488-alexa anti-guinea pig; 488-alexa anti-rat; 594- and 488-alexa anti-goat; 594- and 488-alexa anti-chicken. Pictures were processed using ZEISS Axioimager Z1 and LEICA DM 6000 B. For quantification purpose, stained cells were counted manually on every tenth section.
Cell counts: Quantitative analyses were performed by the counting of colored pixels on (immuno-) stained sections of pancreas using the Photoshop software. Specifically, every 10th section was processed using the same settings for all animals and genotypes.

WT mice [2] = test: Streptozotocin-mediated diabetes in WT mice treated with GABA; assay type: in vivo, mouse
Source text: (§2) FIG. 4: The β-like cell mass can be regenerated following streptozotocin treatment in GABA-treated mice, the neo-generated insulin^+ cells being functional. […] Such a recovery is associated with a clear regeneration of their β-cell mass monitored 5, 10, 25 and 45 days post-streptozotocin administration by immunochemistry. 85 days post-streptozotocin injection, GABA- and STZ-treated WT and non-treated controls were subjected to a glucose tolerance test (GTT) (B).
Induction of streptozotocin-mediated diabetes: To induce hyperglycaemia, STZ (Sigma) was dissolved in 0.1M sodium citrate buffer (pH 4.5), and a single dose was administered intraperitoneally (100 mg/kg) within 10 min of dissolution. Diabetes progression was assessed by the monitoring of blood glucose levels of the mice.
A functional β-cell mass can be regenerated following chemically-induced diabetes in GABA-treated animals: To determine whether neo-formed insulin^+ cells could functionally replace endogenous β-cells, we injected WT animals with a high dose of streptozotocin to obliterate the endogenous β-cell mass.

WT mice [3] = test: Glucose tolerance test in GABA- and STZ-treated WT mice; assay type: in vivo, mouse; details: surviving GABA-treated mice, 85 days post-streptozotocin, versus controls not treated with GABA or streptozotocin
Source text: as §2

[4] = test system: Arx mRNA in α-TC1-6 cells; test: Relative Arx mRNA expression in α-TC1-6 cells treated with GABA; assay type: cell-based; details: α-TC1-6 cell line, increasing GABA concentrations, different periods of time, versus non-treated cells
Description: Relative Arx mRNA expression was measured in the different conditions.
RNA Analysis: RNA was isolated (RNEASY® (RNA isolation kit), Qiagen) and cDNA synthesis ([…]® (cDNA synthesis kit) choice system, Invitrogen) was performed according to the manufacturer's instructions. Quantitative RT-PCR was carried out using validated primers (Qiagen) and the […]® SYBR Green RT-PCR Kit (Qiagen) following manufacturer's instructions. PCR reactions and detection were performed on a […]® ep realplex cycler using GAPDH and HPRT1 as internal controls for normalization purposes.

insulin+ cells = test: Endocrine cell marker expression of insulin+ cells in GABA-treated pancreata (immunochemistry); assay type: in vivo, mouse; details: GABA-treated islets versus non-treated controls; Pdx1, Nkx6.1, NeuroD1, Glut 2, PC1/3, Pax6
Description: as §1
To ascertain the identity of the insulin^+ cells in GABA-treated pancreata, we assayed the expression of several endocrine cell marker genes by immunochemistry compared to non-treated controls. […]

[5] = test system: glucagon-expressing cells; test: β-galactosidase lineage tracing in Glu-Cre::Rosa26-lox-β-gal mice treated with streptozotocin and GABA; assay type: in vivo, mouse; details: isolated 40 days post-streptozotocin injection, daily GABA
Description: β-galactosidase-based lineage-tracing experiments: Pancreatic tissues were isolated and fixed for 30 min at 4° C. in a solution containing 1% formaldehyde, 0.2% glutaraldehyde, 0.02% NP40. The tissues were dehydrated in 25% sucrose overnight at 4° C. Prior to sectioning, tissues were embedded in freezing medium. For β-galactosidase activity assessment, the tissues were washed in PBS and then incubated overnight in staining solution (500 mM K3Fe(CN)6, 250 mM K4Fe(CN)6, 0.5M MgCl2, 40 mg/ml X-gal in DMF).
Several examples, from unrelated islets, of cells co-expressing insulin with glucagon were noted. […] To validate this hypothesis, we used Glu-Cre::Rosa26-lox-β-gal mice. […] It is important to note that such double-positive cells (in lesser proportion) are also observed in GABA-treated Glu-Cre::Rosa26-lox-β-gal animals not subjected to streptozotocin administration.

[6] = test system: pancreatic cells of WT mice; test: BrdU cell proliferation in GABA-treated WT mice; assay type: in vivo, mouse
Source text: Thus, to gain further insight into the mechanisms underlying these processes, we administered the thymidine analogue 5-bromo-2′-deoxyuridine (BrdU) to detect actively replicating cells. […] In addition, glucagon^+ and somatostatin^+ cells were not uniformly distributed within the islet mantle but rather found clustered at a pole of the islet, adjacent to neighboring ducts, unlike in controls where the distribution of the non-β-cells were found scattered in the mantle of the islets.

Ngn3 = Ngn3 immunohistochemistry in GABA-treated pancreata; assay type: in vivo, mouse; details: no Ngn3 expression in control animals
Description: as §1, with “section. […]” for “section.”

mice = details: streptozotocin-induced diabetes in mice (Soltani et al., 2011; Gomez et al., 2007); cited from earlier work
NOD mice = NOD mice (Soltani et al., 2011; Tian et al., 2011); cited from earlier work
[7] = Life expectancy, basal glycemia and general health of GABA-treated WT mice

## NCCCC(=O)O [GABA, gamma-amino butyric acid]
[1]; GABA 1 month
  Glucagon+ cell count: x 0.97
  Somatostatin+ cell count: x 1.43
  Insulin+ cell count: x 1.04 ± 0.15
  Islet count: x 2.19 ± 0.04
  Islet size: x 1.04 ± 0.15
[1]; GABA 2 months
  Glucagon+ cell count: x 1.91
  Somatostatin+ cell count: x 2.39
  Insulin+ cell count: x 2.15 ± 0.22
  Islet count: x 1.86 ± 0.05
  Islet size: x 2.15 ± 0.22
[1]; GABA 3 months
  Glucagon+ cell count: x 3.02
  Somatostatin+ cell count: x 2.84
  Insulin+ cell count: x 3.49 ± 0.11
  Islet count: x 1.80 ± 0.03
  Islet size: x 3.49 ± 0.11
WT mice [2]; GABA-treated WT animals after streptozotocin, immunohistochemistry at different time points
  Regeneration of insulin+ cells after β-cell loss: progressively regenerated
WT mice [2]; WT mice, high dose STZ, GABA started at approximately 300 mg/dl, water controls died from extreme hyperglycemia
  Glycemia course after streptozotocin: steady recovery
WT mice [2]; surviving GABA-treated mice, data not shown
  Sensitivity to another round of streptozotocin: not sensitive to STZ
WT mice [3]
  Response to glucose challenge: improved response with a lower raise in glycemia and a faster return to euglycemia
[4]
  Arx mRNA expression: decrease in Arx mRNA expression
insulin+ cells
  Expression of β-cell markers in insulin-expressing cells: uniformly expressed the bona fide β-cell markers
[5]
  Insulin and β-galactosidase co-labelling (conversion of glucagon-expressing cells): a majority of cells positive for insulin and β-galactosidase
[6]; GABA-treated WT pancreata, BrdU for 10 days
  Location of BrdU+ proliferating cells: predominantly located in the ductal lining and in the ductal epithelium
[6]; GABA-treated mice, relative to the size of the islets, data not shown
  β-cell proliferation: lack of a significant increase in β-cell proliferation
Ngn3
  Ngn3 expression: reactivation of Ngn3 in the ductal environment
mice
  Blood glucose levels: decrease blood glucose levels
NOD mice
  Diabetes reversal: reverse diabetes
[7]; GABA-treated WT mice
  Viability, health and fertility of treated animals: viable, healthy and fertile
[7]; WT mice, GABA treatment duration 1 month, treatment age 2.6 m
  Life expectancy: normal
[7]; WT mice, GABA treatment duration 2 months, treatment age 2.6 m
  Life expectancy: normal
[7]; WT mice, GABA treatment duration 3 months, treatment age 2.6 m
  Life expectancy: normal
[7]; WT mice, GABA treatment duration 3 months, treatment age 2.6 m, monitored weekly
  Basal glycemia: 142
